From patent publication US20060281817A1, “Treatment for neurodegenerative diseases” (priority 2005, published 2006)

How the values were obtained:
[1] = tested on: Huntington's disease (HD) mice; assay: Rotorod motor function test in HD mice; assay type: in vivo; conditions: treated HD mice vs untreated HD mice, day 93 and day 105 after birth
Method: This example was carried out as schematically illustrated in FIG. 1.

[2] = tested on: MN9D cells, vector only (control cells); assay: Cell death (propidium iodide, flow cytometry), cells with empty vector; assay type: cell-based; conditions: Vector only construct
Description: (§1) Parkinson's disease (PD) is characterized by the presence of aggregates (Lewy bodies) composed of alpha-synculein and other cellular proteins within neurons. (Paleologou; Gandhi) These aggregates are believed to be a critical factor in the death of the neuron and in the etiology of PD (Paleologou; Schrag). Mutated alpha-synuclein, as observed in those individuals with familial PD caused by synculein mutations, causes increased aggregate formation (Paleologou). A cell culture model is used to study alpha-synuclein aggregate formation in vitro. This model was created by using molecular biological techniques to transfect a dopaminergic cell line with DNA constructs that, when expressed, generate large amounts of normal alpha-synuclein (over-expressed) or mutated human alpha synuclein within the cells essentially as described by Perez et al (Perez). […] These cells were then treated with Difluoromethylornithine (DFMO) to test the ability of this agent to reduce cell death.
(§2) Compared to control cells, treatment with DFMO (100-500 uM) increased survival in cells over-expressing alpha synuclein and in cells expressing mutated alpha synuclein by up to 54%.

[3] = tested on: MN9D cells over-expressing human alpha synuclein (wild type); assay: Cell death (propidium iodide, flow cytometry), cells over-expressing alpha synuclein; assay type: cell-based
Description: as §1, §2

[4] = tested on: MN9D cells expressing human A53T alpha-synuclein mutant; assay: Cell death (propidium iodide, flow cytometry), cells expressing mutated alpha synuclein; assay type: cell-based; conditions: Mutated alpha synuclein construct
Description: as §1, §2

[5] = represents % cells rescued by DFMO, 100 um

With NCCC[C@](N)(C(=O)O)C(F)F [DFMO, Alpha-difluoromethylornithine] as the compound, how does the Rotorod motor function [1] read?
The Rotorod motor function was “better”.

And the “% Dead Cells (DFMO)” value ([2]; DFMO-treated)?
The value was 30.2%.

And the “Reduction in % dead cells with DFMO” value [2, 5]?
The value was 9.6%.

What about the “% rescue compared to vector control for DFMO treated cells” value ([3]; Alpha-synuclein construct) of the same compound?
Its value is 54%.

What about the “% Dead Cells (DFMO)” value ([3]; Alpha-synuclein construct, DFMO-treated) of the same compound?
The value was 29.8%.

And the “% Dead Cells minus % DFMO-treated cells (100 um)” value ([3]; Alpha-synuclein construct, represents % cells rescued by DFMO, 100 um)?
The value was 15%.

What about the “Increased survival compared to control cells” value ([3]; DFMO 100-500 uM, cells over-expressing alpha synuclein and cells expressing mutated alpha synuclein) of the same compound?
The value was “up to 54%”.

And the “% rescue compared to vector control for DFMO treated cells” value [4]?
Its value is 40%.

What about the “% Dead Cells (DFMO)” value ([4]; DFMO-treated) of the same compound?
Its value is 38.1%.

And the “Reduction in % dead cells with DFMO (100 uM)” value [4, 5]?
The value was 13.5%.
